Common to all, as to assay type: biochemical
Experiment [1] concerns the target c-RAF (h) (Homo sapiens, UniProt P04049). In words: Kinase inhibition assay (33P-ATP, P30 filter, scintillation counting): c-RAF. As to conditions: 40 min; 30µM Testsubstanz (100 µM ATP); read-out: Hemmung von Kinasen in % c-RAF (h).
The target in experiment [2] is GSK3β (h) (Homo sapiens, UniProt P49841). In words: Kinase inhibition assay (33P-ATP, P30 filter, scintillation counting): GSK3β. The conditions noted are these: 30µM Testsubstanz (100 µM ATP); read-out: Hemmung von Kinasen in % GSK3β (h).
Experiment [3] has as its target JNK3 (r) (Rattus norvegicus, UniProt P49187). Put plainly: Kinase inhibition assay: JNK3. As to conditions: 30µM Testsubstanz (100 µM ATP); read-out: Hemmung von Kinasen in % JNK3 (r). From the text:
(§1) Alle Kinasen werden auf zehnfache Arbeitskonzentration vor Anwendung in dem Essay verdünnt. Die Zusammensetzung des Verdünnungspuffers ist für jede Kinase in der nachfolgenden Tabelle angegeben.
(§2) Alle Substrate werden gelöst und auf eine Stammlösung in entsalztem Wasser verdünnt.

For experiment [4], the target named is Lck (h) (Homo sapiens, UniProt P06239). In words: Kinase inhibition assay (33P-ATP, P30 filter, scintillation counting): Lck. The conditions noted are these: 30µM Testsubstanz (100 µM ATP); read-out: Hemmung von Kinasen in % Lck (h).
Experiment [5] has as its target MAPK1 (h) (Homo sapiens, UniProt P27361). In words: Kinase inhibition assay: MAPK1. The conditions noted are these: 30µM Testsubstanz (100 µM ATP); read-out: Hemmung von Kinasen in % MAPK1 (h).
Excerpt: as §1, §2

The target in experiment [6] is MAPK2 (h) (Homo sapiens, UniProt P28482). Put plainly: Kinase inhibition assay: MAPK2. The conditions noted are these: 30µM Testsubstanz (100 µM ATP); read-out: Hemmung von Kinasen in % MAPK2 (h).
Excerpt: as §1, §2

In experiment [7] the target is MEK1 (h) (Homo sapiens, UniProt Q02750). Put plainly: Kinase inhibition assay: MEK1 (coupled to MAPK2 assay). As to conditions: 30µM Testsubstanz (100 µM ATP); read-out: Hemmung von Kinasen in % MEK1 (h).
Experiment [8] deals with PKA (h). Put plainly: Kinase inhibition assay (33P-ATP, P30 filter, scintillation counting): PKA. As to conditions: 30µM Testsubstanz (100 µM ATP); 40 min.
The target in experiment [9] is PKB (h) (Homo sapiens, UniProt P31749). In words: Kinase inhibition assay (33P-ATP, P30 filter, scintillation counting): PKB. As to conditions: 40 min; 30µM Testsubstanz (100 µM ATP); read-out: Hemmung von Kinasen in % PKB (h).
The subject of experiment [10] is ROCKII (h). Put plainly: Kinase inhibition assay (33P-ATP, P30 filter, scintillation counting): ROCK-II. The conditions noted are these: 30µM Testsubstanz (100 µM ATP); 40 min.
For experiment [11], the target named is SAPK2a (h) (Homo sapiens, UniProt Q16539). Put plainly: Kinase inhibition assay (33P-ATP, P30 filter, scintillation counting): SAPK2a. As to conditions: 30µM Testsubstanz (100 µM ATP); read-out: Hemmung von Kinasen in % SAPK2a (h).
Sequence of SAPK2a (h) (Q16539 whole entry): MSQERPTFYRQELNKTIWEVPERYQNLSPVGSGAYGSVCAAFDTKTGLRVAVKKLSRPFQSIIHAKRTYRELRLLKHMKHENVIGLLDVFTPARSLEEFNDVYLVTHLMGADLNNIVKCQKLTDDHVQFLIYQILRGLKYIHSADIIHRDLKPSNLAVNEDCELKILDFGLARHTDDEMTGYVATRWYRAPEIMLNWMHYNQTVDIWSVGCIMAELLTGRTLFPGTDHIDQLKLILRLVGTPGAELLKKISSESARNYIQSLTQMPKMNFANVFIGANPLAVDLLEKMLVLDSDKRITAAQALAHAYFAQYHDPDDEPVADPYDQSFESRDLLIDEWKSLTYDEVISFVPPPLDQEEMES

Sequence of GSK3β (h) (P49841 whole entry): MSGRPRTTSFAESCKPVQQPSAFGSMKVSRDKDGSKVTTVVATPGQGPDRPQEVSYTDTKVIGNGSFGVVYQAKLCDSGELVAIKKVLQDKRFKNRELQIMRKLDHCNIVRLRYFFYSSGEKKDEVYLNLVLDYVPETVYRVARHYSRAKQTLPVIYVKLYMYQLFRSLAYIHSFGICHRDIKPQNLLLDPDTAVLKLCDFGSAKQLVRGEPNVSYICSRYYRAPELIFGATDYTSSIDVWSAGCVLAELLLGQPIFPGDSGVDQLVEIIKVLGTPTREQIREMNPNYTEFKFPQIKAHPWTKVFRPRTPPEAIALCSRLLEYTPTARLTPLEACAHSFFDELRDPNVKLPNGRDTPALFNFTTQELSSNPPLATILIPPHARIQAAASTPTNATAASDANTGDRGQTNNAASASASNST
Sequence of MAPK2 (h) (P28482 whole entry): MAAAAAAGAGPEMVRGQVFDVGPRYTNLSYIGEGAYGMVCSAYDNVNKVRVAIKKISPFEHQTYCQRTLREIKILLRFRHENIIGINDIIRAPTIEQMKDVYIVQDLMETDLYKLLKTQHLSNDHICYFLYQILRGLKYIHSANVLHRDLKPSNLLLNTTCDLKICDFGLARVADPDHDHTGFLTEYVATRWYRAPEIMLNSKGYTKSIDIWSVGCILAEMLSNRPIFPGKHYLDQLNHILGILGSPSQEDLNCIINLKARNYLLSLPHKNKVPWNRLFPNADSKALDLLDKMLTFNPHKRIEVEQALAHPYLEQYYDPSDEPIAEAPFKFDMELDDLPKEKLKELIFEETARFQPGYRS
Sequence of PKB (h) (P31749 whole entry): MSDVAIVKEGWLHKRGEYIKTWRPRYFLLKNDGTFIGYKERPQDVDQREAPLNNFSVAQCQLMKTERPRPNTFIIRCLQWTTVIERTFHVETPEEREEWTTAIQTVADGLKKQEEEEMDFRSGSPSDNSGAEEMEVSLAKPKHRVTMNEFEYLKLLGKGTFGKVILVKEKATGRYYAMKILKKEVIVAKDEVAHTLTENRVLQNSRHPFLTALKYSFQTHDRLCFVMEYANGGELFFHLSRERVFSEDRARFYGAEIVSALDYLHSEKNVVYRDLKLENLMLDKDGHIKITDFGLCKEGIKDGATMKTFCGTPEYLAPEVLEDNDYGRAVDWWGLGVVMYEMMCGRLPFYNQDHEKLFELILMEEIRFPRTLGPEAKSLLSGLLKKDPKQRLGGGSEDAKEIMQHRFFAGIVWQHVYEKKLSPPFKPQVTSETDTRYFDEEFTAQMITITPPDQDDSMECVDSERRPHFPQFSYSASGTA
Sequence of JNK3 (r) (P49187 whole entry): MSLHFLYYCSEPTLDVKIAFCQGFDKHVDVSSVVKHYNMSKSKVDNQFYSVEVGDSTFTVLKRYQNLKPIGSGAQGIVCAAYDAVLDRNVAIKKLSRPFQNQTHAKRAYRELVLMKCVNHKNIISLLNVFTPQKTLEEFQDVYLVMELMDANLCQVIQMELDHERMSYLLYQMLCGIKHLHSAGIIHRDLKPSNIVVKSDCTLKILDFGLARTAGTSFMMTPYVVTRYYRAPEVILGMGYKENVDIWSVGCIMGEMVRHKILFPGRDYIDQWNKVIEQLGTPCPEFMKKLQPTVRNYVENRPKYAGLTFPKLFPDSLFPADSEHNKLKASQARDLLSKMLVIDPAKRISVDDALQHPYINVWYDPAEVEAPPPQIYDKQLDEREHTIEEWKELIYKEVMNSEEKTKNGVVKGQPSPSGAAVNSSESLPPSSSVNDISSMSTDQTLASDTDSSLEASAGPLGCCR
Sequence of Lck (h) (P06239 whole entry): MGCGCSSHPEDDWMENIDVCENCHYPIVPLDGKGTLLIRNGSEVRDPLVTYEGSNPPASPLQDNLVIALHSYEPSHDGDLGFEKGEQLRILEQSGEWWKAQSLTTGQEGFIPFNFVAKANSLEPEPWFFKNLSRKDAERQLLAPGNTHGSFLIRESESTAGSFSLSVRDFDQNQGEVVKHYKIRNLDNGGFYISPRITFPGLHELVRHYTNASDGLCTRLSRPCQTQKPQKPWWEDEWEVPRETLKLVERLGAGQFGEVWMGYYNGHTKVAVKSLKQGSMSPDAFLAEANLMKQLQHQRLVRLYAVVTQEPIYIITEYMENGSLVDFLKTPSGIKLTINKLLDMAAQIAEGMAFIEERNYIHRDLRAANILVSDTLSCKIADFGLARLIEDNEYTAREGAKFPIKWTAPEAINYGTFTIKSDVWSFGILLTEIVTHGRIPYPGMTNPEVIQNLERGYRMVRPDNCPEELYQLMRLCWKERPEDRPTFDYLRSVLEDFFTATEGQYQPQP
Sequence of c-RAF (h) (P04049 whole entry): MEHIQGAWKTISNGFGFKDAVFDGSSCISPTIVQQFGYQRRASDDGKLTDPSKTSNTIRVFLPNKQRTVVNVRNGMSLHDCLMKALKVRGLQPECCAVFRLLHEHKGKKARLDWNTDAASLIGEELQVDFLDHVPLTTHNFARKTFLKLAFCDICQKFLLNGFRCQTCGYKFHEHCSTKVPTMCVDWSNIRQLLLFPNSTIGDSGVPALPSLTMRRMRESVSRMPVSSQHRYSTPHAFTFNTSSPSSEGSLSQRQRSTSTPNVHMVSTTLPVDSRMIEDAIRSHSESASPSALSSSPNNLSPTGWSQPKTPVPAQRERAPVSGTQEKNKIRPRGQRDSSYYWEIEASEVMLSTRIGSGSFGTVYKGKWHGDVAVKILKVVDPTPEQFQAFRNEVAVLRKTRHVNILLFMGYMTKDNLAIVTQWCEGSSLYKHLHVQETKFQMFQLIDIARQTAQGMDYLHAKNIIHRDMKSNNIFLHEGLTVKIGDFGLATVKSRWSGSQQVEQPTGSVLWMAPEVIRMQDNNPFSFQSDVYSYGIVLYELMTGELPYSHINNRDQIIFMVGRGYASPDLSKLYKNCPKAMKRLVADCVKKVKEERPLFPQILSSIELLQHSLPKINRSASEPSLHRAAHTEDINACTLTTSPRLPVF
Sequence of MAPK1 (h) (P27361 whole entry): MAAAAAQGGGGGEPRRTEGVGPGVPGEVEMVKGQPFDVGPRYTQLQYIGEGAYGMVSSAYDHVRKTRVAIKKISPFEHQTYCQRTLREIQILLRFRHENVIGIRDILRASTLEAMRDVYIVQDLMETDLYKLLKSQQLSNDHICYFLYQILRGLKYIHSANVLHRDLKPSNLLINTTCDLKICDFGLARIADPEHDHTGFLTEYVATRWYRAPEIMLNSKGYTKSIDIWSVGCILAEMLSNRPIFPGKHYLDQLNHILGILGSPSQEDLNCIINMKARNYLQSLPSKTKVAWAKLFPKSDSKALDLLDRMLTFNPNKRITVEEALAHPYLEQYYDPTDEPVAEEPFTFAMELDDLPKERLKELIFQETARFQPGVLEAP
Sequence of MEK1 (h) (Q02750 whole entry): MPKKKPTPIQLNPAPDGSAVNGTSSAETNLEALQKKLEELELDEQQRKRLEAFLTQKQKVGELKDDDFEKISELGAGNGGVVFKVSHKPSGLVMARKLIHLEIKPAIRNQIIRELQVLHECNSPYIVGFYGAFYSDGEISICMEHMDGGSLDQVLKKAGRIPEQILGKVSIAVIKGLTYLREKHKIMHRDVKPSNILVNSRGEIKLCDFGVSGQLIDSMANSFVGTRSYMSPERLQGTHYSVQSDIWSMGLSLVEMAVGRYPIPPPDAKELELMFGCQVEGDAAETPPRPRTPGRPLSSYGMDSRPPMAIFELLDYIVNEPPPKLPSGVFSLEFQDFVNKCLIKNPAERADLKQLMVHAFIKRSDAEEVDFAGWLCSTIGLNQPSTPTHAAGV

For `Fc1ccc(Sc2ncnc3[nH]ccc23)cc1` [Verbd. 53, 4-(4-Fluoro-phenylsulfanyl)-7H-pyrrolo[2,3-d]pyrimidin], the inhibition at 30 µM turned out to be 43% in [1]; 4% in experiment [2]; 5% in experiment [3]; 52% in experiment [4]; 10% in experiment [5]; 2% in [6]. Besides, the values for the inhibition at 30 µM in [7], in experiment [9] and in experiment [11] were 36%, 0% and 79%, respectively. For the same compound, the “Hemmung von Kinasen in % PKA (h)” value in experiment [8] was 0%. The “Hemmung von Kinasen in % ROCKII (h)” value in experiment [10] was 42%.

In the case of `Cn1c(-c2ccccc2)nc2c(Sc3ccc(F)cc3)ncnc21` [Verbd. 24, 6-(4-Fluoro-phenylsulfanyl)-9-methyl-8-phenyl-9H-purin], the inhibition at 30 µM stood at 14% in experiment [1]; 22% in [2]; 16% in experiment [3]; 20% in experiment [4]; 11% in experiment [5]; 1% in [6]. The inhibition at 30 µM in experiment [7] worked out at 7%; in experiment [9], 29%; in experiment [11], 29%. The “Hemmung von Kinasen in % PKA (h)” value in experiment [8] was determined as 3%. In addition, in experiment [10], the “Hemmung von Kinasen in % ROCKII (h)” value is given as 9%.

Values taken from EP1444982A1, “The use of purine derivatives as selective kinase inhibitors” (MERCKLE GMBH, priority 2003, dated 2004).
